Experimental data reported in paper PMC5152921, “Evolutionary and Functional Diversification of the Vitamin D Receptor-Lithocholic Acid Partnership” (PLoS ONE, 2016).

What was measured:
Assay in all cases: Mammalian 2-hybrid assay (VDR-coregulator interaction, HepG2)
Format in all cases: cell-based
Conditions in all cases: 100 μM LCA
Skate VDR = target: T1, Skate VDR (Leucoraja erinacea, UniProt A0A088GDQ7)
T1 sequence (A0A088GDQ7 1-434): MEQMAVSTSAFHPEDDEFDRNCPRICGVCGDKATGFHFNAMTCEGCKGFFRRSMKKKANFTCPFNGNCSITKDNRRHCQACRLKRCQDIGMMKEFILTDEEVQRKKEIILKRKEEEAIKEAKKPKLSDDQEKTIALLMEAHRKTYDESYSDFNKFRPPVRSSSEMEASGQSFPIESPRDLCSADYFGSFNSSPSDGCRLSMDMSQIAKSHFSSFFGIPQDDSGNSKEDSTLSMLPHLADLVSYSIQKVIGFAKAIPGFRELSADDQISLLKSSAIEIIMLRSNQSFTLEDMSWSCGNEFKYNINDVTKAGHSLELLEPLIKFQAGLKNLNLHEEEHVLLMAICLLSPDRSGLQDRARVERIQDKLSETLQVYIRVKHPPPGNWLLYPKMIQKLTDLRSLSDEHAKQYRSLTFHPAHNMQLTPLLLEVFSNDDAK
T1 sequence (P19793 1-462 partner): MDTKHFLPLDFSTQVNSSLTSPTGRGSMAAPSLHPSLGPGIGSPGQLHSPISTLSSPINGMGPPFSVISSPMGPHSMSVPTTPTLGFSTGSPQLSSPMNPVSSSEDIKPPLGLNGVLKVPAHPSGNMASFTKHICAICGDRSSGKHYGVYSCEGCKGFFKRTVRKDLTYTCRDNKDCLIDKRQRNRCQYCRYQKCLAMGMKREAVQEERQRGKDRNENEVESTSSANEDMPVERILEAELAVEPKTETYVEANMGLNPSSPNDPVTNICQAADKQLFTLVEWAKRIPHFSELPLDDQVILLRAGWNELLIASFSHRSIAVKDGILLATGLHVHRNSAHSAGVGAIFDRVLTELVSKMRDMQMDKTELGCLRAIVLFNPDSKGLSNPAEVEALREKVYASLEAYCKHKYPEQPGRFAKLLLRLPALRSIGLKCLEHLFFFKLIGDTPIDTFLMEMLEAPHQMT
Text: (§1) Prey constructs included full-length VDRs fused to the herpes simplex VP16 activation domain (pVP16-VDR). Bait constructs consisted of either full-length wild-type human RXR (pM-RXRWT), a truncated human RXR mutant (pM-RXRAF2), or the defined NR box of each member of the SRC/p160 family (pM-SRC1_241-386, pM-GRIP1_479-767, or pM-ACTR392-1005) fused to the yeast Gal4 DNA-binding domain. Reporters included the Gal4 luciferase reporter (5xGal4-TATA-Luc) and pRL-CMV as an internal luciferase control.
(§2) HepG2 cells were seeded into 96-well tissue culture plates as described above and transfected with Lipofectamine 2000 the following day. Each well received 33.6 ng pVP16-VDR, 33.6 ng pM-coregulator (where indicated), 126.6 ng 5XGal4-TATA-Luc, and 3 ng pRL-CMV. […] Positive controls were treated with 1,25D3 and vehicle controls were treated with ethanol. Luciferase activity was measured 24 hours post-exposure using the Dual-Glo Luciferase Assay System described above. Raw luciferase data were normalized to the pRL-CMV luciferase control. VDR-coregulator response was normalized to the pVP16-VDR in the absence of bait constructs. Results were analyzed using a two-way ANOVA followed by Bonferroni’s multiple comparisons test in Prism (GraphPad Inc, San Diego, CA). All experiments were replicated 3 times and conducted as groups of 4 replicate wells.

Bichir VDR = target: T2, Bichir VDR (Polypterus senegalus, UniProt A0A088GJ14)
T2 sequence (A0A088GJ14 1-421): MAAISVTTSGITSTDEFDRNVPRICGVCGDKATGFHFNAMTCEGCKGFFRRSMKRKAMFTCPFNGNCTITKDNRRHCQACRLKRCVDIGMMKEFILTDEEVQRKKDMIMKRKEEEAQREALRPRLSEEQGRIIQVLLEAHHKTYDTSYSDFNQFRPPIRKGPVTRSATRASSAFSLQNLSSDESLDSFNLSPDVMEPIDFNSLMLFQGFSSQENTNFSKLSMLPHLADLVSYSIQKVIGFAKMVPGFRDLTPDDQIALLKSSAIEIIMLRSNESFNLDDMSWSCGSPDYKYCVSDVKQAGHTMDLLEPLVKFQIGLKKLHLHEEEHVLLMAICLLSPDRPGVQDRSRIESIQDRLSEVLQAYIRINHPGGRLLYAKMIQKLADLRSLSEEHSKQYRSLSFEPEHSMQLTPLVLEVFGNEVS
T2 sequence (P19793 1-462 partner): T1 sequence (P19793 1-462 partner)
Text: as §1, §2

Medaka VDRα = Medaka VDRα (Oryzias latipes, UniProt B2CCA0)
Text: as §1, §2

Human VDR = target: T3, Human VDR (Homo sapiens, UniProt P11473)
T3 sequence (P11473 1-427): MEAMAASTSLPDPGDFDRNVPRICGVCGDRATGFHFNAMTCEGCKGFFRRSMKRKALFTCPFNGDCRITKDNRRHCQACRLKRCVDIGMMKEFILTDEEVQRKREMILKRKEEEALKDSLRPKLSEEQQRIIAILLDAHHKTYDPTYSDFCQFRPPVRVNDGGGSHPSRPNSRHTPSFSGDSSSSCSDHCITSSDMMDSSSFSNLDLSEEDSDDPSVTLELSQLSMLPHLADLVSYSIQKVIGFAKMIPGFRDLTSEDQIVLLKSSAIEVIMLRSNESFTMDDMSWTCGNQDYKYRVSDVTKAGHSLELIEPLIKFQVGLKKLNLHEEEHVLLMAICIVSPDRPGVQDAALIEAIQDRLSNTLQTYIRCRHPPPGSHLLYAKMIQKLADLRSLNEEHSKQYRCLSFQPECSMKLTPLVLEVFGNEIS
Text: as §1, §2

Medaka VDRβ = target: T4, Medaka VDRβ (Oryzias latipes, UniProt B2CCA1)
T4 sequence (B2CCA1 1-425): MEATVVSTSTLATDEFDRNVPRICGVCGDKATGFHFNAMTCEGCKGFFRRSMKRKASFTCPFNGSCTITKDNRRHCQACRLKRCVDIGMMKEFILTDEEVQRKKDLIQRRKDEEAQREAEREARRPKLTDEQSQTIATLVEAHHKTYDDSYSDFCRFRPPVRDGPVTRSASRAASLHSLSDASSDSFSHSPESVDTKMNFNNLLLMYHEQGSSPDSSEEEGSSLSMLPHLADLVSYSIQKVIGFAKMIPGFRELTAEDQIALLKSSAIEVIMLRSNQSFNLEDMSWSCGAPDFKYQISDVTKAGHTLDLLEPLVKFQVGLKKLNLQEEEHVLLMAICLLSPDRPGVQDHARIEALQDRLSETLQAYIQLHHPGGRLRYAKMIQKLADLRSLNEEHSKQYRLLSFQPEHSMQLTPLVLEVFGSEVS
T4 sequence (P19793 1-462 partner): T1 sequence (P19793 1-462 partner)
Text: as §1, §2

[1] = any of the SRC/p160 coactivators
[2] = bait human RXRWT, presence and absence of SRC1

Chain of Medaka VDRα (B2CCA0 entry or part of it, one chain of several): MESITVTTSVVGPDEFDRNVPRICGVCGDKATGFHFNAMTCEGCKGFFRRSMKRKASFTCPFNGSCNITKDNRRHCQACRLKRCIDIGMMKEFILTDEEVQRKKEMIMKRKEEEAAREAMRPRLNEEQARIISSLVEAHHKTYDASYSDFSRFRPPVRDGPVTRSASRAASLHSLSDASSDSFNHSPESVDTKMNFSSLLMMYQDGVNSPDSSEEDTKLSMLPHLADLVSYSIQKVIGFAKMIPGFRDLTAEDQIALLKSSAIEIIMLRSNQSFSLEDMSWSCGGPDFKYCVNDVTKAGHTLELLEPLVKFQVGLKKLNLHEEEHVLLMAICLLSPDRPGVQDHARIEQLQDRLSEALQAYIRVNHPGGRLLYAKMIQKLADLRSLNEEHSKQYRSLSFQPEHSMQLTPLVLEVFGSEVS

`C[C@H](CCC(=O)O)[C@H]1CC[C@H]2[C@@H]3CC[C@@H]4C[C@H](O)CC[C@]4(C)[C@H]3CC[C@]12C` [LCA, 5β-cholanic acid-3α-ol] was tested, and the VDR-SRC/p160 coactivator interaction (Skate VDR; [1]) was “No protein-protein interaction was observed”, the “VDR-RXRWT interaction (heterodimerization)” value (shortened to “VDR-RXRWT interaction”) (Skate VDR; [2]) was “not observed” and the VDR-SRC/p160 coactivator interaction (Bichir VDR; [1]) was “No protein-protein interaction was observed”. The “VDR-RXRWT interaction” value (Bichir VDR; [2]) was “not observed”, the “VDR-RXRWT interaction” value (Medaka VDRα; bait human RXRWT) was “Robust and significant VDR-RXRWT interactions” and the VDR-SRC1 interaction (Medaka VDRα; cotransfection of RXRWT) was “strong VDR-SRC1 interactions”. For the same compound, the VDR-SRC1 interaction (Human VDR; absence of cotransfected RXRWT) was “successfully recruited SRC1”, the “VDR-RXRWT interaction” value (Human VDR; bait human RXRWT) was “Robust and significant VDR-RXRWT interactions” and the VDR-SRC1 interaction (Human VDR; cotransfection of RXRWT) was “strong VDR-SRC1 interactions”. For the same compound, the “VDR-RXRWT interaction” value (Medaka VDRβ; bait human RXRWT) was “Robust and significant VDR-RXRWT interactions” and the VDR-SRC1 interaction (Medaka VDRβ; cotransfection of RXRWT) was “strong VDR-SRC1 interactions”.
